Test results: patent US20230123334A1, “AMINO LIPID COMPOUND, PREPARATION METHOD THEREFOR, AND APPLICATION THEREOF” (SHENZHEN SHENXIN BIOTECHNOLOGY CO., LTD., priority 2020, published 2023)

Tested on: HEK293 cells
Assay: Preliminary screening as mRNA vectors, EGFP mRNA transfection of HEK293 cells
Format: cell-based
Settings: EGFP mRNA 50 ng per well, 96-well plates; percentage of GFP fluorescent cells relative to total number of cells (Hoechst)
Method in brief: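 HEK293 cells in DMEM plus 10% FBS transfected in 96-well format with 50 ng EGFP mRNA per well; Lipofectamine2000 served as positive control. Read-out is the percentage of GFP-fluorescent cells among total cells, counted by Hoechst nuclear stain.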

Structure (SMILES)	Absolute mRNA transfection efficiency in HEK293 cells [%]
CCCCCCCCCCCCSc1nc(NCCN2CCN(C)CC2)nc(SCCCCCCC)n1 [Compound D5S7S12]	48.8
CCCCCCCCCCCCCCSc1nc(NCCN2CCN(C)CC2)nc(SCCCCCCC)n1 [Compound D5S7S14]	63.7
CCCCCCCCCCCCCCCSc1nc(NCCN2CCN(C)CC2)nc(SCCCCCCC)n1 [Compound D5S7S15]	58.7
CCCCCCCCCCCCCCCCSc1nc(NCCN2CCN(C)CC2)nc(SCCCCCCC)n1 [Compound D5S7S16]	49.2
CCCCCCCCCCCCCCCCCCSc1nc(NCCN2CCN(C)CC2)nc(SCCCCCCC)n1 [Compound D5S7S18]	3.8
CCCCCCCCSc1nc(NCCCCCC)nc(NCCN2CCN(C)CC2)n1 [Compound D5S8N6]	1.6
CCCCCCCCSc1nc(NCCCCCCC)nc(NCCN2CCN(C)CC2)n1 [Compound D5S8N7]	2.5
CCCCCCCCNc1nc(NCCN2CCN(C)CC2)nc(SCCCCCCCC)n1 [Compound D5S8N8]	1.3
CCCCCCCCCNc1nc(NCCN2CCN(C)CC2)nc(SCCCCCCCC)n1 [Compound D5S8N9]	11.2
CCCCCCCCCCCNc1nc(NCCN2CCN(C)CC2)nc(SCCCCCCCC)n1 [Compound D5S8N11]	30.1
CCCCCCCCCCCCNc1nc(NCCN2CCN(C)CC2)nc(SCCCCCCCC)n1 [Compound D5S8N12]	52.5
CCCCCCCCCCCCCNc1nc(NCCN2CCN(C)CC2)nc(SCCCCCCCC)n1 [Compound D5S8N13]	44.2
CCCCCCCCCCCCCCCNc1nc(NCCN2CCN(C)CC2)nc(SCCCCCCCC)n1 [Compound D5S8N15]	14.9
CCCCCCCCCCCCCCCCNc1nc(NCCN2CCN(C)CC2)nc(SCCCCCCCC)n1 [Compound D5S8N16]	32.3
CCCCCCCCCCCCCCCCCCNc1nc(NCCN2CCN(C)CC2)nc(SCCCCCCCC)n1 [Compound D5S8N18]	29.9
CCCCCCCCSc1nc(NCCN2CCN(C)CC2)nc(SCCCCCCCC)n1 [Compound D5S8S8]	45.2
CCCCCCCCCSc1nc(NCCN2CCN(C)CC2)nc(SCCCCCCCC)n1 [Compound D5S8S9]	36.1
CCCCCCCCCCSc1nc(NCCN2CCN(C)CC2)nc(SCCCCCCCC)n1 [Compound D5S8S10]	65.6
CCCCCCCCCCCSc1nc(NCCN2CCN(C)CC2)nc(SCCCCCCCC)n1 [Compound D5S8S11]	87.0
CCCCCCCCCCCCSc1nc(NCCN2CCN(C)CC2)nc(SCCCCCCCC)n1 [Compound D5S8S12]	47.4
CCCCCCCCCSc1nc(NCCCCCC)nc(NCCN2CCN(C)CC2)n1 [Compound D5S9N6]	2.9
CCCCCCCCCSc1nc(NCCCCCCC)nc(NCCN2CCN(C)CC2)n1 [Compound D5S9N7]	2.6
CCCCCCCCCSc1nc(NCCCCCCCC)nc(NCCN2CCN(C)CC2)n1 [Compound D5S9N8]	6.0
CCCCCCCCCNc1nc(NCCN2CCN(C)CC2)nc(SCCCCCCCCC)n1 [Compound D5S9N9]	38.2
CCCCCCCCCCCNc1nc(NCCN2CCN(C)CC2)nc(SCCCCCCCCC)n1 [Compound D5S9N11]	32.1

Structure (SMILES)	Absolute mRNA transfection efficiency in HEK293 cells [%]
CCCCCCCCCCCCNc1nc(NCCN2CCN(C)CC2)nc(SCCCCCCCCC)n1 [Compound D5S9N12]	24.6
CCCCCCCCCCCCCNc1nc(NCCN2CCN(C)CC2)nc(SCCCCCCCCC)n1 [Compound D5S9N13]	41.5
CCCCCCCCCCCCCCCNc1nc(NCCN2CCN(C)CC2)nc(SCCCCCCCCC)n1 [Compound D5S9N15]	32.9
CCCCCCCCCCCCCCCCNc1nc(NCCN2CCN(C)CC2)nc(SCCCCCCCCC)n1 [Compound D5S9N16]	16.1
CCCCCCCCCCCCCCCCCCNc1nc(NCCN2CCN(C)CC2)nc(SCCCCCCCCC)n1 [Compound D5S9N18]	28.6
CCCCCCCCCCSc1nc(NCCCCCC)nc(NCCN2CCN(C)CC2)n1 [Compound D5S10N6]	1.1
CCCCCCCCCCSc1nc(NCCCCCCC)nc(NCCN2CCN(C)CC2)n1 [Compound D5S10N7]	3.2
CCCCCCCCCCSc1nc(NCCCCCCCC)nc(NCCN2CCN(C)CC2)n1 [Compound D5S10N8]	8.6
CCCCCCCCCCSc1nc(NCCCCCCCCC)nc(NCCN2CCN(C)CC2)n1 [Compound D5S10N9]	8.5
CCCCCCCCCCCNc1nc(NCCN2CCN(C)CC2)nc(SCCCCCCCCCC)n1 [Compound D5S10N11]	11.0
CCCCCCCCCCCCNc1nc(NCCN2CCN(C)CC2)nc(SCCCCCCCCCC)n1 [Compound D5S10N12]	3.6
CCCCCCCCCCCCCNc1nc(NCCN2CCN(C)CC2)nc(SCCCCCCCCCC)n1 [Compound D5S10N13]	4.6
CCCCCCCCCCCCCCCNc1nc(NCCN2CCN(C)CC2)nc(SCCCCCCCCCC)n1 [Compound D5S10N15]	1.8
CCCCCCCCCCCCCCCCNc1nc(NCCN2CCN(C)CC2)nc(SCCCCCCCCCC)n1 [Compound D5S10N16]	3.9
CCCCCCCCCCCCCCCCCCNc1nc(NCCN2CCN(C)CC2)nc(SCCCCCCCCCC)n1 [Compound D5S10N18]	2.3
CCCCCCCCCCCSc1nc(NCCCCCC)nc(NCCN2CCN(C)CC2)n1 [Compound D5S11N6]	26.9
CCCCCCCCCCCSc1nc(NCCCCCCC)nc(NCCN2CCN(C)CC2)n1 [Compound D5S11N7]	8.5
CCCCCCCCCCCSc1nc(NCCCCCCCC)nc(NCCN2CCN(C)CC2)n1 [Compound D5S11N8]	36.2
CCCCCCCCCCCSc1nc(NCCCCCCCCC)nc(NCCN2CCN(C)CC2)n1 [Compound D5S11N9]	41.5
CCCCCCCCCCCNc1nc(NCCN2CCN(C)CC2)nc(SCCCCCCCCCCC)n1 [Compound D5S11N11]	36.5
CCCCCCCCCCCCNc1nc(NCCN2CCN(C)CC2)nc(SCCCCCCCCCCC)n1 [Compound D5S11N12]	22.8
CCCCCCCCCCCCCNc1nc(NCCN2CCN(C)CC2)nc(SCCCCCCCCCCC)n1 [Compound D5S11N13]	11.2
CCCCCCCCCCCCCCCNc1nc(NCCN2CCN(C)CC2)nc(SCCCCCCCCCCC)n1 [Compound D5S11N15]	20.4
CCCCCCCCCCCCCCCCNc1nc(NCCN2CCN(C)CC2)nc(SCCCCCCCCCCC)n1 [Compound D5S11N16]	3.9
